Non-standard residues stand in square brackets, D forms with d. Residues, ends and D or L forms follow the SMILES beside them. 3Abz = Nc1cccc(C(=O)O)c1; 4Abz = Nc1ccc(C(=O)O)cc1; 2Abz = Nc1ccccc1C(=O)O; Ava = NCCCCC(=O)O
Legend:
GPR8 [1] = target: T1, GPR8 (Homo sapiens, UniProt P48146); assay: Binding inhibition test with [125I]-[Phe2]-hNPW(1-23), GPR8 membrane preparation
T1 construct: expressed in transfected cells; host or cells: HEK293/CRE-BLA cells (AURORA), expression vector pIRES-hygro (Clontech)
Protocol: (§1) One nmol of [Phe2]-hNPW(1-23) (prepared in Synthesis Example 19) was dissolved in 5 µL of anhydrous DMSO, and the solution was mixed with 0.1M nickel chloride. Then, the mixture was mixed with 10 µL of a 0.00 1 % aqueous solution of hydrogen peroxide, 10 µL of an enzyme solution (lactoperoxidase (Sigma) adjusted to 10 µg/mL with a 0.1M HEPES buffer solution), and 37 Mbq/10 µL of Iodine-125 (Amersham), whereafter the resulting mixture was reacted for 60 minutes at room temperature. The reaction was terminated with the addition of 10 µL of 1% sodium azide, and then a radiolabeled peptide fraction was collected by a PD-10 gel filtration column (Amersham) to obtain [^125I]-[Phe2]-hNPW(1-23).
(§2) A cDNA sequence coding for human GPR7 or GPR8 [see Genomics, vol. 28, p. 84 (1995)] was amplified by the PCR method, and cloned using the expression vector pIRES-hygro (Clontech). The resulting expression vector was transfected into HEK293/CRE-BLA cells (AURORA) using the cationic lipid method [see Proceedings of the National Academy of Sciences of the United States of America, vol. 84, p. 7413 (1987)] to obtain GPR7 or GPR8 expression cells.
(§3) A membrane preparation prepared from the cells expressing GPR7 or GPR8 was incubated for 1 hour at room temperature in an assay buffer solution (25 mM Tris buffer solution, 150 mM NaCl, pH 7.4) together with a test compound and 28,000 cpm of [^125I]-[Phe2]-hNPW(1-23). Then, the system was filtered through the glass filter GF/C. After washing with 25 mM Tris buffer solution (pH 7.4), radioactivity on the glass filter was measured. Nonspecific binding was measured in the presence of 1 µM hNPW (prepared in Synthesis Example 1), and the 50% inhibition concentration (IC50 value) of the test compound against [Phe2]-hNPW(1-23) specific binding was calculated [see Molecular Pharmacology, vol. 55, 1101 (1999)].

GPR7 [2] = target: T2, GPR7 (Homo sapiens, UniProt P48145); assay: Binding inhibition test with [125I]-[Phe2]-hNPW(1-23), GPR7 membrane preparation
T2 construct: expressed in transfected cells; host or cells: HEK293/CRE-BLA cells (AURORA), expression vector pIRES-hygro (Clontech)
T2 sequence (P48145 1-328): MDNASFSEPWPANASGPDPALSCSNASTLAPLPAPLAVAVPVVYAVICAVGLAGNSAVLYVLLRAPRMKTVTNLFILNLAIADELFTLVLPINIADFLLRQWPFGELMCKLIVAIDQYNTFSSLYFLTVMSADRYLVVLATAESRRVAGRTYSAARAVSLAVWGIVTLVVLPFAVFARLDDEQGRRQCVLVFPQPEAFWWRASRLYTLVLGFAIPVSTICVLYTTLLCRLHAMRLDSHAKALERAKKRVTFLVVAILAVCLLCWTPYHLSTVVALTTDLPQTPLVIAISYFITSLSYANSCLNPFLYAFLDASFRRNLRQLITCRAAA
Protocol: as §1, §2, §3

GPR8 [3] = target: T1, GPR8; assay: Measurement of activation capacity on GPR8 (CRE-BLA beta-lactamase reporter assay); format: cell-based; conditions: Table 1; HEK293/CRE-BLA cells expressing GPR8; forskolin 1 µM; 3 hours at 37°C; read-out: GPR8 (nM) EC 50
Description: as §2
(§4) In accordance with the method of Zlakarmik (see Science, 1998, vol. 279, p. 84), the activity of various synthetic peptides on GPR7 or GPR8 was measured. HEK293/CRE-BLA cells which expressed GPR7 or GPR8 (prepared in (2) of Test Example 1) were washed twice with PBS(-) buffer solution (GIBCO-BRL), and then Cell-dissociation buffer (GIBCO-BRL) was added. The system was kept at 37°C for 3 minutes in a CO2 incubator, and a culture flask was tapped to liberate the cells from the flask. After the cells were harvested by centrifugation, the cells were suspended in an Opti-MEM culture medium (GIBCO-BRL) containing 0.1 % BSA (Sigma) to count the cells and prepare a cell suspension containing 8×10^5 cells/mL. To 2 µL of a DMSO solution containing each test compound with a concentration of 50 times an end concentration, 50 µL of the 0.1% BSA-containing Opti-MEM medium incorporating forskolin (Sigma) so as to have an end concentration of 1 µM was added to form a reaction solution. To this reaction solution, 50 µL of the above cell suspension was added to initiate the reaction, and the system was incubated for 3 hours at 37°C in a CO2 incubator.
(§5) Then, using a BLA assay kit (AURORA), a coloring matter-introduced buffer solution incorporating 12 µL of Solution A [1 mM CCF2-AM/anhydrous DMSO solution], 120 µL of Solution B [100 mg/mL Pluronic 127, 0.1% acetic acid/DMSO solution], and 2 mL of Solution C [24% (w/w) PEG-400, 18% TR40/H2O] was prepared. This coloring matter-introduced buffer solution (20 µL) was added to the above-mentioned cell reaction mixture to introduce a β-lactamase substrate (CCF2-AM) into the cells. After the system was allowed to stand for 1 hour at room temperature, the fluorescence intensities of the sample at an excitation wavelength of 409 nm, at a fluorescence wavelength of 460 nm (a β-lactamase hydrolyzate of CCF), and at 530 nm (CCF) were measured. With β-lactamase activity (fluorescence intensity at 460 nm/fluorescence intensity at 530 nm) as an indicator, the activity of each of various peptides on GPR7 or GPR8 was measured, and the 50% effective concentration (EC50) of the test compound was calculated.

GPR7 [4] = target: T2, GPR7; assay: Measurement of activation capacity on GPR7 (CRE-BLA beta-lactamase reporter assay); format: cell-based; conditions: Table 1; HEK293/CRE-BLA cells expressing GPR7; forskolin 1 µM; 3 hours at 37°C
Description: as §2, §4, §5

[5] = Table 1, membrane preparation of HEK293/CRE-BLA cells expressing GPR8, 1 hour at room temperature
[6] = Table 1, membrane preparation of HEK293/CRE-BLA cells expressing GPR7, 1 hour at room temperature
[7] = Table 2, membrane preparation of cells expressing GPR8
[8] = Table 2, membrane preparation of cells expressing GPR7

T1 sequence (P48146 whole entry): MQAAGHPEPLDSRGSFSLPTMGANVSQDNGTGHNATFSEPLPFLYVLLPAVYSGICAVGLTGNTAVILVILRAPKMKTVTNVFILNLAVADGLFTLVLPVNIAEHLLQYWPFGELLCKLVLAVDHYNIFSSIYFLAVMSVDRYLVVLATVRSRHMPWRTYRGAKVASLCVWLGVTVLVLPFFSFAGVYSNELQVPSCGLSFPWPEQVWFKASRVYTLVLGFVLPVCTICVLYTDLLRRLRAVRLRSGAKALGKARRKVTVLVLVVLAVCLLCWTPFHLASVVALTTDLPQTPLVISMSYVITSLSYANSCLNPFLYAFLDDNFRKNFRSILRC

Row | Compound | IC50 (GPR8 [1]; [5]) [nM] | IC50 (GPR7 [2]; [6]) [nM] | EC50 (GPR8 [3]) [nM] | EC50 (GPR7 [4]) [nM] | IC50 (GPR8 [1]; [7]) [nM] | IC50 (GPR7 [2]; [8]) [nM]
1 | CC(C)C[C@H](NC(=O)CNC(=O)[C@H](CO)NC(=O)[C@H](CC(C)C)NC(=O)[C@H](CC(C)C)NC(=O)CNC(=O)[C@H](C)NC(=O)[C@H](C)NC(=O)[C@H](CCCNC(=N)N)NC(=O)CNC(=O)[C@@H](NC(=O)[C@H](CO)NC(=O)[C@H](Cc1ccc(O)cc1)NC(=O)[C@H](CO)NC(=O)[C@H](CO)NC(=O)[C@H](Cc1cnc[nH]1)NC(=O)CNC(=O)[C@H](C)NC(=O)[C@H](C)NC(=O)[C@@H]1CCCN1C(=O)[C@H](CCCCN)NC(=O)[C@H](Cc1ccc(O)cc1)NC(=O)[C@@H](N)Cc1c[nH]c2ccccc12)C(C)C)C(N)=O [compound 4] | 24 | 0.23 | 0.86 | 0.24 |  | 
2 | CC(C)C[C@H](NC(=O)CNC(=O)[C@H](CO)NC(=O)[C@H](CC(C)C)NC(=O)[C@H](CC(C)C)NC(=O)CNC(=O)[C@H](C)NC(=O)[C@H](C)NC(=O)[C@H](CCCNC(=N)N)NC(=O)CNC(=O)CCCCNC(=O)CCCCNC(=O)CCCCNC(=O)CCCCNC(=O)CCCCNC(=O)[C@H](CCCCN)NC(=O)[C@H](Cc1ccc(O)cc1)NC(=O)[C@@H](N)Cc1c[nH]c2ccccc12)C(N)=O [compound 9] (H-WYK[Ava][Ava][Ava][Ava][Ava]GRAAGLLSGL-NH2) | 2600 | > 100 |  |  |  | 
3 | CC(C)C[C@H](NC(=O)CNC(=O)[C@H](CO)NC(=O)[C@H](CC(C)C)NC(=O)[C@H](CC(C)C)NC(=O)CNC(=O)[C@H](C)NC(=O)[C@H](C)NC(=O)[C@H](CCCNC(=N)N)NC(=O)CNC(=O)c1ccccc1NC(=O)CCCCNC(=O)CCCCNC(=O)[C@H](CCCCN)NC(=O)[C@H](Cc1ccc(O)cc1)NC(=O)[C@@H](N)Cc1c[nH]c2ccccc12)C(N)=O [compound 10] (H-WYK[Ava][Ava][2Abz]GRAAGLLSGL-NH2) |  |  |  |  | 8000 | 4.7
4 | CC(C)C[C@H](NC(=O)CNC(=O)[C@H](CO)NC(=O)[C@H](CC(C)C)NC(=O)[C@H](CC(C)C)NC(=O)CNC(=O)[C@H](C)NC(=O)[C@H](C)NC(=O)[C@H](CCCNC(=N)N)NC(=O)CNC(=O)c1cccc(NC(=O)CCCCNC(=O)CCCCNC(=O)[C@H](CCCCN)NC(=O)[C@H](Cc2ccc(O)cc2)NC(=O)[C@@H](N)Cc2c[nH]c3ccccc23)c1)C(N)=O [compound 11] (H-WYK[Ava][Ava][3Abz]GRAAGLLSGL-NH2) |  |  |  |  | 13 | 0.37
5 | CC(C)C[C@H](NC(=O)CNC(=O)[C@H](CO)NC(=O)[C@H](CC(C)C)NC(=O)[C@H](CC(C)C)NC(=O)CNC(=O)[C@H](C)NC(=O)[C@H](C)NC(=O)[C@H](CCCNC(=N)N)NC(=O)CNC(=O)c1ccc(NC(=O)CCCCNC(=O)CCCCNC(=O)[C@H](CCCCN)NC(=O)[C@H](Cc2ccc(O)cc2)NC(=O)[C@@H](N)Cc2c[nH]c3ccccc23)cc1)C(N)=O [compound 12] (H-WYK[Ava][Ava][4Abz]GRAAGLLSGL-NH2) |  |  |  |  | 5.1 | 0.35
6 | CC(C)C[C@H](NC(=O)CNC(=O)[C@H](CO)NC(=O)[C@H](CC(C)C)NC(=O)[C@H](CC(C)C)NC(=O)CNC(=O)[C@H](C)NC(=O)[C@H](C)NC(=O)[C@H](CCCNC(=N)N)NC(=O)CNC(=O)CCCCNC(=O)c1ccccc1NC(=O)CCCCNC(=O)[C@H](CCCCN)NC(=O)[C@H](Cc1ccc(O)cc1)NC(=O)[C@@H](N)Cc1c[nH]c2ccccc12)C(N)=O [compound 13] (H-WYK[Ava][2Abz][Ava]GRAAGLLSGL-NH2) |  |  |  |  | 39 | 0.56
7 | CC(C)C[C@H](NC(=O)CNC(=O)[C@H](CO)NC(=O)[C@H](CC(C)C)NC(=O)[C@H](CC(C)C)NC(=O)CNC(=O)[C@H](C)NC(=O)[C@H](C)NC(=O)[C@H](CCCNC(=N)N)NC(=O)CNC(=O)CCCCNC(=O)c1cccc(NC(=O)CCCCNC(=O)[C@H](CCCCN)NC(=O)[C@H](Cc2ccc(O)cc2)NC(=O)[C@@H](N)Cc2c[nH]c3ccccc23)c1)C(N)=O [compound 14] (H-WYK[Ava][3Abz][Ava]GRAAGLLSGL-NH2) |  |  |  |  | 16 | 0.19
8 | CC(C)C[C@H](NC(=O)CNC(=O)[C@H](CO)NC(=O)[C@H](CC(C)C)NC(=O)[C@H](CC(C)C)NC(=O)CNC(=O)[C@H](C)NC(=O)[C@H](C)NC(=O)[C@H](CCCNC(=N)N)NC(=O)CNC(=O)CCCCNC(=O)c1ccc(NC(=O)CCCCNC(=O)[C@H](CCCCN)NC(=O)[C@H](Cc2ccc(O)cc2)NC(=O)[C@@H](N)Cc2c[nH]c3ccccc23)cc1)C(N)=O [compound 15] (H-WYK[Ava][4Abz][Ava]GRAAGLLSGL-NH2) |  |  |  |  | 34 | 0.4
9 | CC(C)C[C@H](NC(=O)CNC(=O)[C@H](CO)NC(=O)[C@H](CC(C)C)NC(=O)[C@H](CC(C)C)NC(=O)CNC(=O)[C@H](C)NC(=O)[C@H](C)NC(=O)[C@H](CCCNC(=N)N)NC(=O)CNC(=O)CCCCNC(=O)CCCCNC(=O)c1ccccc1NC(=O)[C@H](CCCCN)NC(=O)[C@H](Cc1ccc(O)cc1)NC(=O)[C@@H](N)Cc1c[nH]c2ccccc12)C(N)=O [compound 16] (H-WYK[2Abz][Ava][Ava]GRAAGLLSGL-NH2) |  |  |  |  | 160 | 1.3
10 | CC(C)C[C@H](NC(=O)CNC(=O)[C@H](CO)NC(=O)[C@H](CC(C)C)NC(=O)[C@H](CC(C)C)NC(=O)CNC(=O)[C@H](C)NC(=O)[C@H](C)NC(=O)[C@H](CCCNC(=N)N)NC(=O)CNC(=O)CCCCNC(=O)CCCCNC(=O)c1cccc(NC(=O)[C@H](CCCCN)NC(=O)[C@H](Cc2ccc(O)cc2)NC(=O)[C@@H](N)Cc2c[nH]c3ccccc23)c1)C(N)=O [compound 17] (H-WYK[3Abz][Ava][Ava]GRAAGLLSGL-NH2) |  |  |  |  | 33 | 0.34
11 | CC(C)C[C@H](NC(=O)CNC(=O)[C@H](CO)NC(=O)[C@H](CC(C)C)NC(=O)[C@H](CC(C)C)NC(=O)CNC(=O)[C@H](C)NC(=O)[C@H](C)NC(=O)[C@H](CCCNC(=N)N)NC(=O)CNC(=O)CCCCNC(=O)CCCCNC(=O)c1ccc(NC(=O)[C@H](CCCCN)NC(=O)[C@H](Cc2ccc(O)cc2)NC(=O)[C@@H](N)Cc2c[nH]c3ccccc23)cc1)C(N)=O [compound 18] (H-WYK[4Abz][Ava][Ava]GRAAGLLSGL-NH2) |  |  |  |  | 190 | 5.6

From patent EP1816136A1, “GPR7-SELECTIVE LIGAND AND USE THEREOF” (BANYU PHARMACEUTICAL CO., LTD., priority 2004, dated 2006)
